Source: article PMC9221546, “New Phenylglycinamide Derivatives with Hybrid Structure as Candidates for New Broad-Spectrum Anticonvulsants” (Cells, 2022)
Entries after “also recorded” stand apart in the source; their conditions may differ.

Legend:
recombinant human CYP2C9 = biological target: T1, recombinant human CYP2C9 (Homo sapiens, UniProt P11712); assay: CYP2C9 P450-Glo luminescent assay; type: in vitro ADME
T1 construct: purchased Promega (Madison, WI, USA)
Procedure: The risk of potential DDIs was predicted with use of luminescent CYP3A4, 2D6, and 2C9 P450-Glo assays (Figure 6). […] However, such an effect was also observed in our previous studies for other pyrrolidine-2,5-dione derivatives. […] However, the potential risk of DDI of 60 was still assessed as very low, and was compared to the selective CYP2C9 inhibitor sulfaphenazole (Figure 6C).
The data were analyzed with one-way ANOVA, followed by Bonferroni’s Multiple Comparison Post Test (Graph Pad Prism 8.0.1 software, San Diego, CA, USA)): * p < 0.05, ** p < 0.01, *** p < 0.001 **** p < 0.0001. The compounds were examined in triplicate.

TRPV1 (VR1) (h) = biological target: T2, TRPV1 (VR1) (h) (Homo sapiens, UniProt Q8NER1); assay: TRPV1 (VR1) (h) antagonist effect functional assay; type: cell-based; settings: human recombinant CHO cells
T2 construct: host or cells: CHO

[1] = test system: MES-induced seizures in mice; assay: Maximal electroshock seizure (MES) test; type: in vivo; settings: for protection in MES screening / responders at 100 mg/kg: 100 mg/kg i.p., 0.5 h; for protection in MES screening: four mice; for responders at 100 mg/kg / ED50: Mus musculus, ip; for responders at 100 mg/kg: read-out: MES screening: number of mice protected/number of mice tested (converted); for ED50: mice, pretreatment time 0.5 h, (95% confidence limits)
Procedure, shortened: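 Adult male Albino Swiss mice (22–26 g), compounds suspended in 1% aqueous Tween 80, single i.p. injection, tested 0.5 h post-dose. Screening at 100 mg/kg with four mice per group; ED50 from 3–4 groups of eight. PI = TD50 (chimney test) / ED50.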

hepatoma HepG2 cell line = assay: Hepatotoxicity, HepG2 viability (MTS); type: cell-based; settings: 72 h treatment
Procedure: Figure 7 The effect of 53, 60, and 62, cytostatic drug doxorubicin (DX) and the mitochondrial toxin CCCP on the hepatoma HepG2 cell line viability after 72 h of incubation at 37 °C, 5% CO2. The data were analyzed with one-way ANOVA, followed by Bonferroni’s Comparison Test (Graph Pad Prism 8.0.1 software, San Diego, CA, USA)): ** p < 0.01, **** p < 0.0001 vs. negative control (DMSO 1% in growth media).

[2] = biological target: T3, Cav1.2 (h) calcium ion channel (Homo sapiens, UniProt Q13936); assay: Cav1.2 (h) calcium ion channel cell-based antagonist calcium flux assay; settings: HEK293, human recombinant HEK-293 cell, read-out: % Inhibition of control agonist response, Cav1.2 calcium flux
T3 construct: Eurofins
Procedure: Binding/functional studies were carried out commercially in Eurofins Laboratories (Poitiers, France) and Eurofins Panlabs Discovery Services Taiwan, Ltd. (New Taipei City, Taiwan) using testing procedures that were reported previously (for details see Table S2).
Table S2. Radioligand binding and functional assays. […]
TRPV1 (VR1) (h) (antagonist effect)
Cav1.2 (L-type) (h) calcium ion channel cell-based antagonist calcium flux assay
Assays were performed commercially in Eurofins Laboratories (Poitiers, France) or Eurofins Panlabs Discovery
Services Taiwan, Ltd. (New Taipei City, Taiwan). […]

[3] = Metabolic stability in human liver microsomes (HLMs); settings: for remaining at 2 h: human, human liver microsomes; for Metabolic Pathway: metabolites after 120 min incubation with HLMs
Na+ channel (site 2) = Na+ channel (site 2) radioligand binding; settings: rat cerebral cortex
mice = assay: Grip strength test (neuromuscular strength); type: in vivo; settings: 50 mg/kg i.p., 0.5 h
Procedure: In studies assessing the acute effect of compounds 53 and 60 on the ivPTZ seizure threshold and neuromuscular strength, compounds 53 and 60 was suspended in a 1% solution of Tween 80 and administered i.p., at a dose of 10 mL/kg body weight. Each experimental group consisted of 9–12 animals (ivPTZ seizure threshold test) or 9−10 animals (grip strength test). The timed ivPTZ test was employed to evaluate the acute effect of compounds 53 and 60 on the seizure thresholds for (1) the first myoclonic twitch, (2) generalized clonic seizure with loss of righting reflex, and (3) forelimb tonus. The experimental procedure of the timed ivPTZ test was described in detail elsewhere. The acute effect of compounds 53 and 60 on neuromuscular strength was quantified using the grip-strength apparatus (BIOSEB, Chaville, France) according to the method that is described elsewhere. The results are depicted in Figure 2 (ivPTZ seizure threshold test, see Section 3 Results and Discussion) and Figure 3 (grip strength test, see Section 3 Results and Discussion).
Figure 3 Acute effects of 53 and 60 on the neuromuscular strength in mice. Compounds 53 and 60 were administered i.p. 0.5 h before the seizure test. Control animals received vehicle only. Each experimental group consisted of 9–10 animals. Each bar represents the mean + SEM grip strengths in millinewtons per gram of mouse body weight (mN/g).

T2 sequence (Q8NER1 whole entry): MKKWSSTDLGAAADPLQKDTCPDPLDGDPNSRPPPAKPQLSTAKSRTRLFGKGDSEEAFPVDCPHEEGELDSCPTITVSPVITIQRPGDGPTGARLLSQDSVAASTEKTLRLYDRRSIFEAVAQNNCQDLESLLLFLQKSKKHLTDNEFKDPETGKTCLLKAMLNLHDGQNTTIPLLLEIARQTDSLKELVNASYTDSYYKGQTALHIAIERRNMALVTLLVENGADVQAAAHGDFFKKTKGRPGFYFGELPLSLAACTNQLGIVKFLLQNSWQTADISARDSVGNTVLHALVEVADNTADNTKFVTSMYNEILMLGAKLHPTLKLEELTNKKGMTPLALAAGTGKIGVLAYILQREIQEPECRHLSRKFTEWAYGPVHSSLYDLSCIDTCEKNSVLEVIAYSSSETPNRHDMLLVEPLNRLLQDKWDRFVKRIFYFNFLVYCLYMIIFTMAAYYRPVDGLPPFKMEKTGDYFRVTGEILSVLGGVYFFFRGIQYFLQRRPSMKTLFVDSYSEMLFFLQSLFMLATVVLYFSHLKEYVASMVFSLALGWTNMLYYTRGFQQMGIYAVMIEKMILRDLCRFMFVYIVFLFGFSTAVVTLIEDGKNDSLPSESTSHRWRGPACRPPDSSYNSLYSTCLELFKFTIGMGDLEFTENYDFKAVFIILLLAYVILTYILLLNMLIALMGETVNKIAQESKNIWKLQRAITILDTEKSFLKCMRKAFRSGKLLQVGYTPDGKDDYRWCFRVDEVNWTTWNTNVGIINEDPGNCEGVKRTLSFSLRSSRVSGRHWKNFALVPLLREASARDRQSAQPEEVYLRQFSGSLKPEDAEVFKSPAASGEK
T1 sequence (P11712 whole entry): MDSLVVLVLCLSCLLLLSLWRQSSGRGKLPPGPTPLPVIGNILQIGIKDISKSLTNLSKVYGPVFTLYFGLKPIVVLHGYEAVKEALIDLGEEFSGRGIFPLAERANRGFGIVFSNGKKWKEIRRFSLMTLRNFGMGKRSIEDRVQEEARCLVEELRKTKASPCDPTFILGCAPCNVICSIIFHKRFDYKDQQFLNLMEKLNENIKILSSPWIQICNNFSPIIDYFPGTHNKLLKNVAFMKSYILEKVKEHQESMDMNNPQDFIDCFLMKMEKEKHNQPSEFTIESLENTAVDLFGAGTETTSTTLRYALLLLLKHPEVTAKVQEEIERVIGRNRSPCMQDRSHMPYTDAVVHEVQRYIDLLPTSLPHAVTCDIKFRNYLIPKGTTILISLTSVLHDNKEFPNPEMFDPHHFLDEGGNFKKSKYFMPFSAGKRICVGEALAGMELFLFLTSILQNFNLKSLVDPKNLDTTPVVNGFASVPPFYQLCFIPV

Structure (SMILES) | influence on CYP2C9 activity (recombinant human CYP2C9) | IC50 (TRPV1 (VR1) (h)) | Kb (TRPV1 (VR1) (h)) | protection in MES screening [1] | responders at 100 mg/kg [1] | ED50 [1] | effect on HepG2 cell viability (hepatotoxicity) (hepatoma HepG2 cell line) | inhibition at 10 µM [2] | remaining at 2 h [3] | Metabolic Pathway [3] | % Inhibition of Control Specific Binding, Na+ channel (site 2) (Na+ channel (site 2); 10 µM) | % Inhibition of Control Specific Binding, Na+ channel (site 2) (Na+ channel (site 2); 100 µM) | effect on neuromuscular strength (grip strength) (mice)
CC(=O)NC(C(=O)N1CCN(c2cccc(C(F)(F)F)c2)CC1)c1ccccc1 (stereo not shown) [Compound 53, N-(2-oxo-1-phenyl-2-(4-(3-(trifluoromethyl)phenyl)piperazin-1-yl)ethyl)acetamide] | weak inhibition effect | 13 µM | 1700 nM | 75% | 75% | 89.7 mg/kg | observed only at 100 µM | 55% | 95.6% | hydroxylation | 17.4% | 75.5% | did not significantly affect
CC(=O)NC(C(=O)N1CCN(c2cccc(OC(F)(F)F)c2)CC1)c1ccccc1 (stereo not shown) [Compound 60, N-(2-oxo-1-phenyl-2-(4-(3-(trifluoromethoxy)phenyl)piperazin-1-yl)ethyl)acetamide] | a little stronger influence, observed also at 10 µM | 11 µM | 1500 nM | 75% | 75% | 73.6 mg/kg | observed only at 100 µM | 31% | 88.8% | hydroxylation; also recorded: dehydrogenation | 37.0 (10) % | – | did not significantly affect
